From patent publication US7071190B2, “Inhibitors to tubulin polymerization” (Rigel Pharmaceuticals, Inc., priority 2002, dated 2006)
Read-outs that look alike come from different tables or passages of the source.

Tested on: A549 cells
Experiment: Bromodeoxyuridine (BrdU) proliferation assay
Format: cell-based, human
Conditions: for IC50: BrdU ELISA 48 hours after addition of compound, tested 0.03-10 uM, cell line not given (A549 method; SW-480 and MDA-MB-231 also used), read-out: Assay Result (IC50μM); for Activity ranking: most active compounds of the invention / Activity ranking: particularly active examples of the compounds of the invention: antiproliferative activity
Description: In order to determine the antiproliferative activity of microtubule inhibitors, A549 cells were plated in 96 well plates at 2000 cells/well 24 hours prior to the addition of a compound of the invention in 80 ul growth media (F12K, 10% FBS, Pen/Strep). Prior to addition to cells, compounds were solubilized in 100% DMSO to 5 mM and serially diluted in 6 semi-log steps in 100% DMSO. The diluted compounds were added to cells by two 15.8-fold dilution steps, the first being a dilution into a 23% ethanol/H2O mixture and the second being a dilution into growth media. Finally, these dilutions were followed by a 1:1 dilution onto cells. The resulting final solvent concentration was 0.2% DMSO/0.75% ethanol. Compounds were tested at final concentrations of 10, 3, 1, 0.3, 0.1 and 0.03 uM. Forty-eight hours after the addition of compound, the effects on cellular proliferation were measured using a cell proliferation BrdU ELISA (Roche Molecular Biochemicals, Cat.#1 669 915).

IC50 (Homo sapiens, A549, 48 h)	IC50	Structure (SMILES)	Activity ranking: most active compounds of the invention	Activity ranking: particularly active examples of the compounds of the invention
0.385 µM	–	COCCNC(=S)NNc1ncnc2cc(-c3ccc4c(c3)OCO4)sc12 [Compound 102]	most active	particularly active
0.927 µM	–	Cc1cc(C)cc(-c2cc3ncnc(NNC(=S)Nc4ccccc4)c3s2)c1 [Compound 50]	most active	particularly active
5.75 µM	–	NC(=S)NNc1ncnc2cc(-c3ccccc3)sc12 [Compound 26]	–	particularly active
0.155 µM	–	COc1ccc(-c2cc3ncnc(NNC(=S)Nc4ccccc4)c3s2)cc1 [Compound 33]	most active	particularly active
0.134 µM	–	S=C(NC[C@@H]1CCCO1)NNc1ncnc2cc(-c3ccccc3)sc12 [Compound 65]	most active	particularly active
0.719 µM	–	Cc1cccc(-c2cc3ncnc(NNC(=S)NCC4CCCO4)c3s2)c1 (centres unmarked) [Compound 79]	most active	particularly active
0.121 µM	–	Cc1ccc(-c2cc3ncnc(NNC(=S)NC4CC4)c3s2)cc1 [Compound 38]	most active	particularly active
6.03 µM	–	S=C(NCCN1CCOCC1)NNc1ncnc2cc(-c3ccccc3)sc12 [Compound 68]	–	particularly active
0.086 µM	–	Cc1cc(C)cc(-c2cc3ncnc(NNC(=S)NC(C)C)c3s2)c1 [Compound 99]	most active	particularly active
–	10.7 µM	COc1cc([N+](=O)[O-])ccc1NC(=S)NNc1ncnc2cc(-c3ccccc3)sc12 [Compound 18]	–	particularly active
0.071 µM	–	S=C(NNc1ncnc2cc(-c3ccccc3)sc12)NC1CCCC1 [Compound 20]	most active	particularly active
18.6 µM	–	S=C(NCCN1CCCCC1)NNc1ncnc2cc(-c3ccccc3)sc12 [Compound 67]	–	particularly active
–	0.39 µM	S=C(NNc1ncnc2cc(-c3ccccc3)sc12)Nc1ccccc1 [Compound 2]	most active	particularly active
0.151 µM	–	Cc1cccc(-c2cc3ncnc(NNC(=S)NC[C@@H]4CCCO4)c3s2)c1 [Compound 80]	most active	particularly active
8.15 µM	–	S=C(NCC(c1ccccc1)c1ccccc1)NNc1ncnc2cc(-c3ccccc3)sc12 [Compound 105]	–	particularly active
–	–	Cc1cccc(-c2cc3ncnc(NNC(=S)NCC4COC(C)(C)O4)c3s2)c1 (centres unmarked) [Compound 82]	–	particularly active
0.02 µM	–	CCCNC(=S)NNc1ncnc2cc(-c3ccccc3)sc12 [Compound 71]	most active	particularly active
0.329 µM	–	COc1ccccc1NC(=S)NNc1ncnc2cc(-c3ccccc3)sc12 [Compound 6]	most active	particularly active
0.127 µM	–	Cc1cccc(-c2cc3ncnc(NNC(=S)NCc4ccco4)c3s2)c1 [Compound 83]	most active	particularly active
1.61 µM	–	CNC(=S)NNc1ncnc2cc(-c3ccccc3)sc12 [Compound 70]	–	particularly active
0.028 µM	–	COCCCNC(=S)NNc1ncnc2cc(-c3cccc(C)c3)sc12 [Compound 89]	most active	particularly active
7.16 µM	–	Cc1cccc(-c2cc3ncnc(NNC(=S)N[C@@H]4CCC[C@H]4OCc4ccccc4)c3s2)c1 [Compound 47]	–	particularly active

IC50 (Homo sapiens, A549, 48 h)	IC50	Structure (SMILES)	Activity ranking: most active compounds of the invention	Activity ranking: particularly active examples of the compounds of the invention
–	2.2 µM	CCOC(=O)c1ccccc1NC(=S)NNc1ncnc2cc(-c3ccccc3)sc12 [Compound 11]	–	particularly active
–	–	S=C(NNc1ncnc2cc(-c3ccc4c(c3)OCO4)sc12)NC1CC1 [Compound 56]	–	particularly active
–	5.11 µM	COc1cc([N+](=O)[O-])ccc1NC(=S)NNc1ncnc2cc(-c3ccccc3)sc12 [Compound 17]	–	particularly active
2.79 µM	–	S=C(NNc1ncnc2cc(-c3cccc(Cl)c3)sc12)Nc1ccccc1 [Compound 35]	–	particularly active
0.15 µM	–	Cc1ccc(-c2cc3ncnc(NNC(=S)NC4CC4)c3s2)cc1C [Compound 55]	most active	particularly active
0.044 µM	–	CCCNC(=S)NNc1ncnc2cc(-c3cccc(C)c3)sc12 [Compound 85]	most active	particularly active
6.7 µM	–	COc1ccc(NC(=S)NNc2ncnc3cc(-c4ccccc4)sc23)cc1OC [Compound 15]	–	particularly active
0.029 µM	–	COCCCNC(=S)NNc1ncnc2cc(-c3cc(C)cc(C)c3)sc12 [Compound 101]	most active	particularly active
2.2 µM	–	COCCNC(=S)NNc1ncnc2cc(-c3cccc(C(F)(F)F)c3)sc12 [Compound 91]	–	particularly active
0.166 µM	–	COCCNC(=S)NNc1ncnc2cc(-c3ccc(C)cc3)sc12 [Compound 87]	most active	particularly active
1.11 µM	–	S=C(NCCc1ccccc1)NNc1ncnc2cc(-c3ccccc3)sc12 [Compound 58]	–	particularly active
–	–	S=C(NNc1ncnc2cc(-c3ccc4c(c3)OCO4)sc12)Nc1ccccc1 [Compound 52]	–	particularly active
1.43 µM	–	Cc1cccc(-c2cc3ncnc(NNC(=S)NCCCO)c3s2)c1 [Compound 48]	–	particularly active
0.026 µM	–	Cc1cccc(-c2cc3ncnc(NNC(=S)NC(C)C)c3s2)c1 [Compound 86]	most active	particularly active
–	–	COc1cccc(-c2cc3ncnc(NNC(=S)NCC4CCCO4)c3s2)c1 (centres unmarked) [Compound 81]	–	particularly active
–	0.38 µM	COc1ccc(NC(=S)NNc2ncnc3cc(-c4ccccc4)sc23)c(OC)c1 [Compound 13]	most active	particularly active
0.146 µM	–	S=C(NNc1ncnc2cc(-c3cccc(Cl)c3)sc12)NC1CC1 [Compound 42]	most active	particularly active
1.97 µM	–	Cc1ccc(-c2cc3ncnc(NNC(N)=S)c3s2)cc1 [Compound 30]	–	particularly active
0.113 µM	–	CCNC(=S)NNc1ncnc2cc(-c3cccc(C)c3)sc12 [Compound 84]	most active	particularly active
6.44 µM	–	S=C(NNc1ncnc2cc(-c3ccccc3)sc12)Nc1cccnc1 [Compound 25]	–	particularly active
1.33 µM	–	CCOC(=O)c1ccccc1NC(=S)NNc1ncnc2cc(-c3ccccc3)sc12 [Compound 10]	–	particularly active
0.013 µM	–	COCCNC(=S)NNc1ncnc2cc(-c3cc(C)cc(C)c3)sc12 [Compound 100]	most active	particularly active
